The values that follow come from paper PMC8416056, “Aspulvinones Suppress Postprandial Hyperglycemia as Potent α-Glucosidase Inhibitors From Aspergillus terreus ASM-1” (Frontiers in Chemistry, 2021).

The subject of assay [1] is female C57BL/6J mice. Put plainly: Oral sucrose tolerance test. Format: in vivo. The following applies: sucrose 2 g/kg BW; for decrease of the AUC (blood glucose, 0–120 min): versus negative control. How it is done:
(§1) Female C57BL/6J mice, 6 weeks old, weighting 16–20 g, were obtained from the Skbex Biotechenology Company Limited (Henan, China). The animals were housed in Experimental Animal Center of Zhoukou Normal University under 12 h light-dark cycle at controlled temperature (22 ± 1°C), and provided with a standard pellet diet and water ad libitum. The mice were adapted to diet and general conditions of vivarium for 1 week before the experiment. After an 16 h fasting, the mice were divided into three groups randomly (eight mice each group). […] Mice were fasted 16 h and then intragastrically (i.g.) administrated the inhibitors, 15 min later, 2 g/kg BW of sucrose or 2 g/kg BW of maltose solution was given i.g. to the animals. Blood samples were taken from the tail vein at 0, 30, 60, and 120 min after sucrose or maltose loading, and blood glucose was measured with Accu-Chek Active glucometer (Roche, Germany). Area under the curve (AUC) over 0–120 min was calculated by the trapezoidal method. All animals were cared under the frame of the China Council on Animal Care and all procedures were approved by the Health Sciences Animal Welfare Committee of Zhoukou Normal University.

In assay [2] the target is α-glucosidase. The following applies: ref Dewi et al., 2014; cited from earlier work.
The target in assay [3] is T1, α-Glucosidase (EC:3.2.1.20, MAL12) (Saccharomyces cerevisiae, UniProt P53341).
T1 construct: purchased
The assay is described as follows: biochemical. Here is the method: α-Glucosidase (EC:3.2.1.20, MAL12) from Saccharomyces cerevisiae was dissolved in 0.1 mol/L PBS solutions with a pH of 6.8, and diluted to be a 1.0 U/ml solution. The substrate p-nitrophenyl-[…] (pNPG) was dissolved in PBS to be a 1 mM solution. […] The absorbance of p-nitrophenol was monitored at 405 nm. […] The negative control was performed by adding PBS instead of α-glucosidase, the blank was prepared by adding solvent without tested compounds. The inhibition rate was calculated as Eq. 1: IR% =[(Ac-As)/Ac] × 100% (1) where Ac represents the absorbance of control without sample solution, and As denotes the absorbance of sample.

Assay [4] has as its target T2, α-glucosidase (Saccharomyces cerevisiae, UniProt P53341).
T2 construct: purchased
Put plainly: Enzymatic kinetics of α-glucosidase (Lineweaver–Burk, Dixon and secondary plots). To be noted: for Inhibition mode: Lineweaver–Burk plots; for KIS: inhibitor binding with enzyme-substrate complex, vertical intercept (1/Vm) versus inhibitor concentration. The assay is classed as biochemical. How it is done:
pNPG with a concentration range of 100–4,000 μM and α-glucosidase were incubated with different concentrations of inhibitor for 10 min, respectively. 20 μl of 1.0 U/ml enzyme solutions were first mixed with 10 μl of different concentrations of inhibitors, then 50 μl PBS solutions were added, and the mixed solutions were incubated at 37°C for 10 min. Subsequently, 20 μl of pNPG solutions (1.25, 2.5, 5, 10 and 20 mM) were added, and the mixed solutions were further incubated at 37°C for 25 min, the absorbance of reaction solution was measured at 405 nm every 3 min. The kinetic parameters, Michaelis–Menten (Km) and maximum velocity (Vmax), were found using Lineweaver–Burk plots to check the mode of α-glucosidase inhibition for compounds 1 and 4. The dissociation constants between inhibitor and enzyme (Ki) were calculated from Dixon plots. Two inhibition constants, KI or KIS, for inhibitor binding with either free or enzyme-substrate complex, were calculated from secondary plots of the slopes of the straight lines ([…]) or vertical intercept (1/Vmax) verse the concentration of inhibitors, respectively ([Jenis et al., 2019]).

Assay [5] has as its target T2, α-glucosidase. Put plainly: Fluorescence quenching analysis. The assay is classed as binding. To be noted: for Ksv: quenching constant; for Kq: quenching rate constant, same cell as Ksv; for ∆S: van't Hoff, from 20, 31 and 37 °C (one value per inhibitor, repeated in the grid). How it is done:
α-Glucosidase (1 μM) was mixed with different concentrations of inhibitors (0–15 μM) at 20, 31, and 37°C, respectively, and the fluorescence spectra of mixed solutions were determined after equilibration for 5 min at an excitation wavelength of 250 nm. Both the excitation and emission slits were set at 10 nm. The quenching rate constant (Kq), binding constant (Ka), the number of the binding sites (n), and thermodynamic parameters enthalpy change (ΔH) and entropy change (ΔS) were calculated according to the Stern-Volmer Eq. 2 and the van’t Hoff Eqs 3–5, which were listed as follows ([Xu et al., 2019]): F0/F = 1 + Ksv[Q] = 1 + Kqτ0[Q] (2) log((F0-F)/F) = logKa+ nlogQ (3) lnKa= (-1/T(ΔH/R)) + ΔS/R (4) ΔG = ΔH-TΔS (5) Where F0 and F represent the fluorescence intensities in the absence or presence of inhibitor, [Q] denote the concentration of inhibitor, τ0 is the constant of the lifetime of fluorophore (10^–8 s) and R is the gas constant of 8.31 J/(mol × K).

Assay [6] deals with T2, α-glucosidase. Put plainly: Circular dichroism spectroscopy of α-glucosidase with inhibitor. Format: binding. The arrangement: dose or concentration left out as unconfirmed. The following applies: after the addition of (molar ratios 20:1 and 40:1), 20°C. How it is done:
The CD measurements were performed in a wavelength range of 190–250 nm at a speed of 60 nm/min. All measurements were carried out at 20°C using 1.0 mm path length quartz cuvette and sodium phosphate buffer (pH 6.8) was considered as a blank. […] All the results were expressed as ellipticity in mill degrees.
A general note: Circular dichroism is widely used to follow secondary structure.

In assay [7] the test system is female C57BL/6J mice. The following applies: 25 mg/kg BW i.g. How it is done: as §1, with “Area under the curve (AUC) over 0–120 min was calculated by the trapezoidal method.” left out
Setting [8] is: sample concentration which led to 50% enzyme activity loss, pNPG substrate, pH 6.8, 37°C, read-out: IC50.
Setting [9] is: inhibition constant, from Dixon plots.
Setting [10] is: inhibitor binding with free enzyme, slope (Km/Vm) versus inhibitor concentration.

The IC50 is the point on the concentration scale where inhibition reaches its midpoint. What is called Ki is a dissociation constant, usually derived from enzyme kinetics or from competition with a known ligand.

Where two headings read alike, the source gives them in different places.

T1 sequence (P53341 whole entry): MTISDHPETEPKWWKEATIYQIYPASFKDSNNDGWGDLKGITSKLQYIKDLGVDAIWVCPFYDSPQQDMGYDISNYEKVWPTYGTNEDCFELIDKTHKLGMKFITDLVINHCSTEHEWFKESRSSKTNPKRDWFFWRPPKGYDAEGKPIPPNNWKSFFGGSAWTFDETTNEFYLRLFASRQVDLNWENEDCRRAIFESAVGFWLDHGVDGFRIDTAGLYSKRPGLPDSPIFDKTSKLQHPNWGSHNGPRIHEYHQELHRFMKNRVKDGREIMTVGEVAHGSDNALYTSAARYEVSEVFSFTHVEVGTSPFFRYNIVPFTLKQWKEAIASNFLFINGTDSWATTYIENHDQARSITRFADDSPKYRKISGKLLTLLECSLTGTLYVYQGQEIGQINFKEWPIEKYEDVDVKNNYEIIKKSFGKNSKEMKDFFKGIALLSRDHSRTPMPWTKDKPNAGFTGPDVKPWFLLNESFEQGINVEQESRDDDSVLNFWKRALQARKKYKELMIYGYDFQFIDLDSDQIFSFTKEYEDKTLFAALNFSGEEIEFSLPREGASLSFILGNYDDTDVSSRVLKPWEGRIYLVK
T2 sequence (P53341 whole entry): as above

`C[C@H]1O[C@H](O[C@H]2[C@H](O)[C@@H](O)[C@@H](O[C@H]3[C@H](O)[C@@H](O)C(O)O[C@@H]3CO)O[C@@H]2CO)[C@H](O)[C@@H](O)[C@@H]1N[C@H]1C=C(CO)[C@@H](O)[C@H](O)[C@H]1O` (stereo partly shown) [Acarbose, reference compound]: the “decrease of the AUC (blood glucose, 0–120 min)” value in assay [1] (50 mg/kg BW i.g.) was determined as 11.8%.

As for `O=C1O/C(=C\c2ccc(O)cc2)C(O)=C1c1ccc(O)cc1` [Aspulvinone E], the IC50 in assay [2] was 2.7 µM.

As to `CC(C)=CCc1cc(/C=C2\OC(=O)C(c3cc4c(c(CC=C(C)C)c3)OC(C)(C)C=C4)=C2O)ccc1O` [Compound 1, Aspulvinone V], the IC50 in assay [3] (setting [8]) was 2.2 ± 0.4 µM. Also, in assay [4], the Inhibition mode entry is given as “mixed-type”. Besides, the Ki in assay [4] (setting [9]) came out at 6.6 µM; in assay [4] (setting [10]), 3.15 µM. This compound had a KIS in assay [4] of 8.23 µM. In addition, the “∆G” value in assay [5] (31 °C) was -3.32 kcal/mol; in assay [5] (37 °C) it was -2.94 kcal/mol. The “binding constants (Ka), order of magnitude” value in assay [5] (at the three temperatures) is given as ~10^5 L/mol. Also, the Kd in assay [5] (binding constant, 20 °C, read-out: Ka (converted)) was 9.09 µM; in assay [5] (binding constant, 31 °C, read-out: Ka (converted)), 3.27 µM; in assay [5] (binding constant, 37 °C, read-out: Ka (converted)), 1.79 µM. Also, the Ksv in assay [5] (20 °C) came out at 53500 L/mol; in assay [5] (31 °C), 78700 L/mol; in assay [5] (37 °C) it was 58100 L/mol. The figures for the Kq in assay [5] (20 °C), in assay [5] (31 °C) and in assay [5] (37 °C) were 5.35e+12 M⁻¹ s⁻¹, 7.87e+12 M⁻¹ s⁻¹ and 5.81e+12 M⁻¹ s⁻¹, respectively. For the same compound, the “∆S” value in assay [5] came out at 148.2 J/mol/K. In addition, the “change of α-glucosidase CD spectrum (negative peaks at 209 and 222 nm)” value in assay [6] is given as “loss of the α-helix structure”.

`CC(C)=CCc1cc(C2=C(O)C(=Cc3ccc4c(c3)CC(C(C)(C)O)O4)OC2=O)ccc1O` (stereo not shown) [Compound 2, Aspulvinone W]: 32 ± 5.8 µM corresponded to half-maximal inhibition in assay [3] (IC50).

In assay [3], `CC1(C)CCc2cc(C3=C(O)C(=Cc4ccc5c(c4)CC(C(C)(C)O)O5)OC3=O)ccc2O1` (stereo not shown) [Compound 3, Aspulvinone X] came in with an IC50 of 38.6 ± 5.2 µM.

Take `CC(C)=CCc1cc(/C=C2\OC(=O)C(c3ccc(O)c(CC=C(C)C)c3)=C2O)ccc1O` [Compound 4, aspulvinone H]: in assay [3] (setting [8]), the IC50 was 4.6 ± 1.3 µM. The Inhibition mode result in assay [4] was “mixed-type”. Besides, the Ki came out at 6.58 µM in assay [4] (setting [9]) and 4.7 µM in assay [4] (setting [10]). Further, the KIS in assay [4] stood at 6.62 µM. The “postprandial blood glucose peak” value in assay [7] (Figure 6C (maltose), versus the negative control group) was “significant decrease”. In assay [7] (Figure 6D (maltose 2 g/kg BW), text prints 'sucrose tolerance test'), the “reduction of the AUC for postprandial plasma glucose in 2 h” value was 19.7%. The “blood glucose rise at 30 and 60 min” value in assay [1] (25 mg/kg BW i.g., compared to negative control group) is “significantly suppressed”. Besides, the “decrease of the AUC (blood glucose, 0–120 min)” value in assay [1] (25 mg/kg BW i.g.) was determined as 13.2%. Also, the “∆G” value is -2.99 kcal/mol in assay [5] (31 °C) and -2.37 kcal/mol in assay [5] (37 °C). In addition, the Kd in assay [5] (Ka, binding constant, 20 °C) is 34.5 µM; in assay [5] (Ka, binding constant, 31 °C) it was 12.7 µM; in assay [5] (Ka, binding constant, 37 °C), 4.31 µM; in assay [5] (binding constants (Ka), order of magnitude, at the three temperatures), roughly 100 µM. Moreover, the Ksv amounted to 56900 L/mol in assay [5] (20 °C), 55300 L/mol in assay [5] (31 °C) and 60200 L/mol in assay [5] (37 °C). Also, the Kq in assay [5] (20 °C) came out at 5.69e+12 M⁻¹ s⁻¹; in assay [5] (31 °C), 5.53e+12 M⁻¹ s⁻¹; in assay [5] (37 °C), 6.02e+12 M⁻¹ s⁻¹. The “∆S” value in assay [5] is 240.1 J/mol/K. The “change of α-glucosidase CD spectrum (negative peaks at 209 and 222 nm)” value in assay [6] was “loss of the α-helix structure”.

The compound `CC(C)(O)[C@H]1Cc2cc(/C=C3\OC(=O)C(c4ccc5c(c4)C[C@H](C(C)(C)O)O5)=C3O)ccc2O1` [Compound 5, aspulvinone J-CR] showed an IC50 in assay [3] of 44.3 ± 8.9 µM.

In turn, `CC(C)=CCc1cc(/C=C2\OC(=O)C(c3cc(CC=C(C)C)c(O)c(CC=C(C)C)c3)=C2O)ccc1O` [Compound 6, aspulvinone R] came in with an IC50 in assay [3] of 10.8 ± 2.3 µM.

Turning to `O=C1O/C(=C/c2ccc(O)cc2)C(O)=C1c1ccc(O)cc1` [isoaspulvinone E], the half-maximal inhibitory concentration (IC50) in assay [2] was 8.92 µM.
